Source: US6218102A, “Synthetic peptides and mixtures thereof for detecting HIV antibodies” (priority 1988, dated 2001)
Ends that are not written are not given here.

Test system: Antibodies to HIV-1
Experiment: ELISA with peptide or peptide mixture as antigen, identifying HIV-1 positive sera
Format: binding, human
Conditions: single peptide, known HIV-1 positive sera, Table 3
Experimental: According to this test a peptide or a peptide mixture of the present invention is adsorbed onto the wells of a microtiter plate. The wells are then treated with sera to be tested. After washing, anti-human IgG labeled with peroxidase is added to the wells. The determination of the peroxidase is performed with a corresponding substrate, e.g. with o-phenylene diamine. Also in this procedure the peroxidase can be exchanged by another label, e.g. by a radioactive or fluorescence label.
Each well of the microtiter plate is saturated with 100 μl of a solution containing a peptide or mixture of peptides (5 μg/ml) and left overnight. The wells are emptied and washed twice with a washing buffer (Tris, 0.043M; NaCl, 0.5M; thimerosal, 0.01% w/v; Tween 20, 0.05% v/v; pH7.4). The wells are then saturated with 0.35 ml of washing buffer for 1 hr. at 37° C. and washed once with the same buffer. Serum samples to be analyzed are diluted with specimen buffer (washing buffer plus casein, 0.05% w/v). The wells are rinsed with washing buffer prior to the addition of the diluted serum sample (0.1 ml). These are left to incubate for 1 hr. at room temperature. The wells are then emptied, washed twice rapidly and then once for two minutes with washing buffer. […] The wells are then emptied and washed twice rapidly with washing buffer and then five times in which the buffer was in contact with the well 2 minutes per washing. The substrate solution (3,3', 5,5'-tetramethylbenzidine, 8 mg per ml of DMSO) is diluted with 100 volumes 0.1M citrate-acetate buffer, pH 5.6 containing 0.1% v/v of 30% H2 O2 and added to each well (0.1 ml per well). After 10 minutes the contents of each well is treated with 0.1 ml 2N H2 SO4 and the optical density read at 450 nm. All determinations are done in duplicate.

Substance	% Positive Sera Correctly Identified [%]
NH2 -CGVERYLKQQLLGIWGCSGKLICTTAVPWNASWSNKSLEQI-COOH [Peptide 99]	100
NH2 -CGYLKDQQLLGIWGCSGKLICTTAVPWNASWSNKSLEQI-COOH [Peptide 97]	100
NH2 -FAFAFGCSGKLICTTAVPWNASWSNKSLEQI-COOH [Peptide 91]	94
NH2 -GCSGKLICTTAVPWNASWSWSNKSLEQI-COOH [Peptide 95]	100
NH2 -IWGCSGKLICTTAVPWNAS-COOH (H-IWGCSGKLICTTAVPWNAS-OH; cysteine pairing not given here) [Peptide 78, gp 41 602-620]	100
NH2 -SGKLICTTAVPWNASWSNKSLEQGC-COOH [Peptide 56]	100
NH2 -VERYLKDQQLLGIWGCSGKLICTTAVPWNAS-COOH (H-VERYLKDQQLLGIWGCSGKLICTTAVPWNAS-OH; cysteine pairing not given here) [Peptide 81, gp 41 590-620]	100
TKAKRRVVQREKRGAVGIGALFLGFLGAAGSG [Peptide 93]	37
TTAVPWNASWSNKSLEQGC [Peptide 42]	5
